Test in all cases: growth of human tumour cells (NCI), 48 h
The subject of experiment [1] is EKVX NSCLC.
The test system of experiment [2] is ACHN renal.
In experiment [3] the test system is HCC-2998 colon.
For experiment [4], the system named is OVCAR-8 ovarian.
Experiment [5] has as its system M14 melanoma.
Experiment [6] relates to HT29 colon.
Experiment [7] deals with UO-31 renal.
The test system of experiment [8] is NCI-H522 lung.
Experiment [9] relates to NCI-H460 lung.
Experiment [10] relates to HL-60(TB) leukemia.

Molecules are shown by their SMILES.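 How tested: cells in 96-well plates exposed to compound for 48 hours at five concentrations. Abbreviation: GI50, concentration required for 50% inhibition of growth. At the TGI there is no net growth.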

Turning to `C(#Cc1ccccc1)SC1=C(c2ccccc2)S/C(=C(\SC#Cc2ccccc2)c2ccccc2)S1`, the TGI in experiment [1], in experiment [2], in experiment [3], in [4], in [5] and in experiment [6] was more than 100 µM in each case. For the same molecule, the TGI in experiment [7], in experiment [8] and in [9] was more than 100 µM throughout.

With `Cc1ccc(/C=C2/N=C(N/N=C\c3ccccc3)NC2=O)cc1`, the TGI was more than 100 µM in [1]; 38.4 µM in experiment [2]; 72.1 µM in [3]; more than 100 µM in [4]; 85.7 µM in experiment [5]; more than 100 µM in [6]. In addition, the TGI is 45.6 µM in [7], more than 100 µM in [8] and more than 100 µM in experiment [9].

On to `Cc1c(O)c(=O)ccn1CCc1ccc(O)cc1`, for which the TGI is 93.3 µM in [1]; more than 100 µM in experiment [2]; more than 100 µM in experiment [4]; 53 µM in [5]; 81.3 µM in experiment [10]; more than 100 µM in experiment [6]. Moreover, the TGI in experiment [9] was found to be 52.9 µM.

With `CCOC(=O)C(C/C=C/CO)N(C)C(=O)OC(C)(C)C` (centres undefined), the TGI in experiment [1], in experiment [2], in experiment [4], in [5], in [10] and in experiment [6] was more than 100 µM in each case. Further, the TGI was more than 100 µM in experiment [7], 61.4 µM in [8] and more than 100 µM in experiment [9].

On to `Cc1ccccc1NC(=O)Cc1csc(N=Nc2c(O)[nH]c3ccccc23)n1`, for which the TGI was more than 100 µM in experiment [1]; more than 100 µM in experiment [2]; 43.1 µM in experiment [4]; more than 100 µM in experiment [5]; 62.1 µM in [10]; more than 100 µM in experiment [6]. The values for the TGI in experiment [7], in experiment [8] and in [9] were more than 100 µM, 41.2 µM and more than 100 µM, respectively.

Turning to `CC(=O)OCC1OC(n2c(-c3ccccc3)c(N=Nc3ccc(C)cc3)c(C)c(C#N)c2=S)C(OC(C)=O)C(OC(C)=O)C1OC(C)=O` (centres undefined), the TGI in [2] is more than 100 µM; in experiment [3], more than 100 µM; in experiment [5], 16.8 µM; in experiment [10] it was more than 100 µM; in experiment [6], more than 100 µM; in [9] it was more than 100 µM.

In the case of `COC(=O)C(NC(=O)OC(C)(C)C)P(=O)(OC)OC` (centres undefined), the TGI in experiment [1], in experiment [2], in experiment [4], in experiment [5], in experiment [10] and in [6] was more than 100 µM each time. The TGI in experiment [7] and in experiment [8] was more than 100 µM in each case.

With `COc1ccc(-n2cnc3c(NC(Cc4ccccc4)C(=O)O)ncnc32)cc1` (centres undefined), the TGI in experiment [1], in experiment [2], in [3], in experiment [4], in [5] and in experiment [6] was more than 100 µM each time. In addition, the TGI in [7] and in experiment [9] was more than 100 µM throughout.

Consider `C=C(C)[C@@H]1CC[C@]2(CO)CC[C@]3(C)[C@H](CC[C@@H]4[C@@]5(C)CC[C@H](NCO)C(C)(C)[C@@H]5CC[C@]43C)[C@@H]12`, for which the GI50 is 0.869 µM in experiment [1]; 0.943 µM in experiment [2]; 1 µM in [10]; 0.703 µM in experiment [7]; 1.03 µM in [8]; 0.918 µM in experiment [9]. Further, the TGI in experiment [1] is 1.64 µM; in experiment [2], 1.65 µM; in [10], 2.32 µM; in experiment [7], 1.35 µM; in experiment [8], 2.01 µM; in [9], 1.79 µM.

With `O=c1[nH]nc(-c2ccccc2)n1-n1cnnc1`, the TGI in experiment [1], in [2], in experiment [3], in experiment [4], in experiment [5] and in experiment [6] was more than 100 µM in each case. Further, the TGI in experiment [7], in experiment [8] and in [9] was more than 100 µM in each case.

Take `C=C1C(=O)OC2C3OC(C)(CCC(O)C3COC(C)=O)CC(OC(=O)/C(=C/C)COC(C)=O)C12` (centres undefined): the TGI in [1] is 1.61 µM; in experiment [2], 0.452 µM; in experiment [3], 2.59 µM; in [4] it was 20 µM; in experiment [5], 1.01 µM; in experiment [6], 0.521 µM. Also, the TGI in experiment [7] was determined as 0.807 µM; in experiment [8], 0.0749 µM; in experiment [9], 2.22 µM.

For `c1cc2c(cc1C1=NCCN1)c1cc(C3=NCCN3)ccc1n2CC1CCCCC1`, the TGI in [1] was 69.2 µM; in [2] it was more than 100 µM; in [4] it was more than 100 µM; in experiment [5], more than 100 µM; in experiment [10], 59.6 µM; in [6], more than 100 µM. In addition, the TGI was more than 100 µM in [7], 21.6 µM in experiment [8] and 34.5 µM in [9].

For `S=c1nc[nH]c2c1ncn2C1CCCO1` (centres undefined), the TGI in [2], in experiment [3], in experiment [4], in experiment [5], in experiment [10] and in [6] was more than 100 µM each time. Moreover, the TGI in experiment [7], in experiment [8] and in [9] was more than 100 µM in each case.

Take `O=C(O)c1ccc(N/C(=C(/C(Cl)=C(Cl)Cl)[N+](=O)[O-])n2nnc3ccccc32)cc1`: the TGI in experiment [1], in [2], in [3], in experiment [4], in experiment [5] and in experiment [6] was more than 100 µM in each case. The TGI in experiment [7] and in experiment [9] was more than 100 µM in each case.

Turning to `NN/C(=N\S(=O)(=O)c1ccc(S(=O)(=O)c2ccccc2)s1)Nc1ccc(Cl)cc1`, the TGI in experiment [1] was 50.4 µM; in experiment [2], more than 100 µM; in experiment [4], more than 100 µM; in experiment [5], 40.1 µM; in experiment [10], 62.2 µM; in experiment [6], 65.4 µM. In addition, the TGI in experiment [7] is more than 100 µM; in [9], 65.7 µM.

The values above are taken from PubChem BioAssay (NCI).
